Calls of active or inactive are those of the source. The rule behind the calls is not given here.
What was measured:
NCI/ADR-RES = assay: Antitumor activity against human MCF7/ADR cells xenografted in nu/nu nude mouse at 100 mg/kg, iv administered as injection in Q2D x 6 schedule; assay type: functional, organism-based; parameters: dose 100 mg/kg
CCRF-CEM [1] = assay: Cytotoxicity against human CCRF-CEM cells after 72 hrs by XTT assay; assay type: functional, cell-based
CCRF-CEM [2] = assay: Cytotoxicity against taxol-resistant human CCRF-CEM cells after 72 hrs by XTT assay; assay type: functional, cell-based
CCRF-CEM [3] = assay: Cytotoxicity against vinblastine-resistant human CCRF-CEM cells after 72 hrs by XTT assay; assay type: functional, cell-based
CCRF-CEM [4] = assay: Selectivity ratio of IC50 for taxol-resistant human CCRF-CEM cells to IC50 for human CCRF-CEM cells; assay type: functional
CCRF-CEM [5] = assay: Selectivity ratio of IC50 for vinblastine-resistant human CCRF-CEM cells to IC50 for human CCRF-CEM cells; assay type: functional
MX1 [6] = assay: Cytotoxicity against human MX1 cells after 72 hrs by SRB assay; assay type: functional, cell-based; conditions: MX1, 72 h
HCT-116 = assay: Cytotoxicity against human HCT116 cells after 72 hrs by SRB assay; assay type: functional, cell-based; conditions: HCT-116, 72 h
[7] = Cytotoxicity against human H1299 cells after 72 hrs by alamar blue assay; assay type: functional, cell-based; conditions: NCI-H1299, 72 h
[8] = Cytotoxicity against human CL1-5 cells after 72 hrs by alamar blue assay; assay type: functional, cell-based; conditions: CL1-5, 72 h
[9] = Cytotoxicity against human CL1-0 cells after 72 hrs by alamar blue assay; assay type: functional, cell-based; conditions: CL1-0, 72 h
PC-3 = assay: Cytotoxicity against human PC3 cells after 72 hrs by alamar blue assay; assay type: functional, cell-based; conditions: PC-3, 72 h
MCF7 = assay: Cytotoxicity against human MCF7 cells after 72 hrs by alamar blue assay; assay type: functional, cell-based; conditions: MCF7, 72 h
MX1 [10] = assay: Antitumor activity against human MX1 cells xenografted in nu/nu nude mouse assessed as complete tumor remission at 150 mg/kg, iv administered as injection in Q2D x 5 schedule measured on day 16; assay type: functional, organism-based; parameters: dose 150 mg/kg
MX1 [11] = assay: Antitumor activity against human MX1 cells xenografted in nu/nu nude mouse assessed as complete tumor remission at 150 mg/kg, iv administered as injection in Q2D x 5 schedule measured on day 70; assay type: functional, organism-based; parameters: dose 150 mg/kg
Mus musculus [12] = assay: Toxicity in nu/nu nude mouse assessed as body weight loss at 150 mg/kg, iv administered as injection in Q2D x 5 schedule measured on day 16; assay type: organism-based; parameters: dose 150 mg/kg, route intravenous; conditions: in vivo
Mus musculus [13] = assay: Toxicity in nu/nu nude mouse assessed as body weight loss at 150 mg/kg, iv administered as injection in Q2D x 5 schedule measured on day 18; assay type: organism-based; parameters: dose 150 mg/kg, route intravenous; conditions: in vivo
Mus musculus [14] = assay: Toxicity in nu/nu nude mouse assessed as body weight loss at 100 mg/kg, iv administered as injection in Q2D x 6 schedule; assay type: organism-based; parameters: dose 100 mg/kg, route intravenous; conditions: in vivo
[15] = Metabolic stability in rat plasma assessed as half life; assay type: ADME, cell-free
Nucleic Acid [16] = assay: Binding affinity to pEGFP-N1 DNA assessed as formation of interstrand cross-links with DNA by alkaline gel shift assay; assay type: nucleic-acid assay
Nucleic Acid [17] = assay: Binding affinity to DNA in human H1299 cells assessed as formation of DNA cross-links after irradiation by modified single cell gel electrophoresis comet assay; assay type: cell-based
Nucleic Acid [18] = assay: Binding affinity to DNA in human H1299 cells assessed as formation of DNA cross-links at 10 uM followed by irradiation by modified single cell gel electrophoresis comet assay; assay type: cell-based

Cc1cc(NC(=O)Nc2ccc(N(CCCl)CCCl)cc2)c2ccccc2n1
Activity (NCI/ADR-RES): Active
IC50 (CCRF-CEM [1]): 193 nM
IC50 (CCRF-CEM [2]): 429 nM
IC50 (CCRF-CEM [3]): 664 nM
Ratio IC50 (CCRF-CEM [4]): 2.2
Ratio IC50 (CCRF-CEM [5]): 3.4
IC50 (MX1 [6]): 343 nM
IC50 (HCT-116): 1420 nM
IC50 [7]: 1980 nM
IC50 [8]: 9450 nM
IC50 [9]: 9020 nM
IC50 (PC-3): 9520 nM
IC50 (MCF7): 9080 nM
Activity (MX1 [10]): Active
Activity (MX1 [11]): Active
Activity (Mus musculus [12]): 2%
Activity (Mus musculus [13]): Non-toxic
Activity (Mus musculus [14]): Non-toxic
half-life [15]: 16.5 h
Activity (Nucleic Acid [16]): Active
Activity (Nucleic Acid [17]): Dose-dependent effect
Activity (Nucleic Acid [18]): 31.3%

Source: ChEMBL document CHEMBL1157637, “Potent DNA-directed alkylating agents: Synthesis and biological activity of phenyl N-mustard-quinoline conjugates having a urea or hydrazinecarboxamide linker” (Bioorg Med Chem, 2010)
